Data from article PMC9411606, “Control cell migration by engineering integrin ligand assembly” (Nature Communications, 2022).

Assay: Circular dichroism (CD) spectroscopy of peptide assemblies
Assay type: physicochemical
Details: 100 µM, aqueous, 0.5 mm path
Experimental: CD spectra of the peptide assemblies in aqueous solutions were recorded under the nitrogen atmosphere using a spectrophotometer JASCO J-820 (Jasco, Japan). A quartz cuvette with 0.5 mm path length was used as a sample container. Continuous scanning mode is applied. And each sample is scanned three times to obtain an averaged spectrum.

FFIKLLI [candidate assembling ligand, FF coupled to N-terminus of IKLLI]
secondary structure of self-assembly: β-sheet structure

FIKLLI [candidate assembling ligand, F coupled to N-terminus of IKLLI]
secondary structure of self-assembly: random coil structure
